Where two headings read alike, the source gives them in different places.
Target: T1, ASGP receptor (biotinylated ASGPR) (Homo sapiens, UniProt P07306)
T1 construct: biotin (biotinylated)
T1 sequence (P07306 1-291): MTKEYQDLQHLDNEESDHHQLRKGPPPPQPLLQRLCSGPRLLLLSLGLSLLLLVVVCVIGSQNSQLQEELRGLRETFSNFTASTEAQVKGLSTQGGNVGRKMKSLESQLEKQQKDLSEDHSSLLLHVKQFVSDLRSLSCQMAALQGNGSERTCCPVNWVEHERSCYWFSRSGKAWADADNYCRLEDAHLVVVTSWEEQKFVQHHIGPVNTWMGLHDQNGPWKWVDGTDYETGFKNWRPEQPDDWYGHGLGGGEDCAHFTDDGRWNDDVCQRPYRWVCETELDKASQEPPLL
Format: binding
Conditions: SPR, Biacore 8K, 25° C.

[1] = Table 1B, numeric bound, read-out: ASGPR Kd
[2] = Table 1C, numeric bound, read-out: ASGPR KD

Kd (Table 1B, read-out: ASGPR Kd) | Kd (Table 1C, read-out: ASGPR KD) | Structure (SMILES) | further results
< 10 µM |  | O[C@@H]1[C@H](O)[C@@H](Nc2cncc(F)n2)CO[C@@H]1COc1cncc(F)n1 [A154, (2R,3R,4R,5S)-5-((6-fluoropyrazin-2-yl)amino)-2-(((6-fluoropyrazin-2-yl)oxy)methyl)tetrahydro-2H-pyran-3,4-diol] | 
< 10 µM |  | C[C@H]1OC[C@H](Nc2cncc(C(F)(F)F)n2)[C@@H](O)[C@H]1O [A155, (2R,3R,4R,5S)-2-methyl-5-((6-(trifluoromethyl)pyrazin-2-yl)amino)tetrahydro-2H-pyran-3,4-diol] | 
10 to 100 µM |  | COc1cncnc1N[C@H]1CO[C@H](CO)[C@H](O)[C@@H]1O [A156, (2R,3R,4R,5S)-2-(hydroxymethyl)-5-((5-methoxypyrimidin-4-yl)amino)tetrahydro-2H-pyran-3,4-diol] | 
< 10 µM |  | O=C1CCCN1C[C@H]1OC[C@H](Nc2cncc(C(F)(F)F)n2)[C@@H](O)[C@H]1O [A157, 1-(((2R,3R,4R,5S)-3,4-dihydroxy-5-((6-(trifluoromethyl)pyrazin-2-yl)amino)tetrahydro-2H-pyran-2-yl)methyl)pyrrolidin-2-one] | 
 |  | OC[C@H]1OC[C@H](NC2CCCC(C(F)(F)F)C2)[C@@H](O)[C@H]1O (stereo partly drawn) [A158, (2R,3R,4R,5S)-2-(hydroxymethyl)-5-((3-(trifluoromethyl)cyclohexyl)amino) tetrahydro-2H-pyran-3,4-diol] | Kd [1]: > 30 µM
 |  | OC[C@H]1OC[C@H](NC2CCCCC2)[C@@H](O)[C@H]1O [A159, (2R,3R,4R,5S)-5-(cyclohexylamino)-2-(hydroxymethyl)tetrahydro-2H-pyran-3,4-diol] | Kd [1]: > 30 µM
 |  | OC[C@H]1OC[C@H](N(CC2CC2)CC2CC2)[C@@H](O)[C@H]1O [A160, (2R,3R,4R,5S)-5-(bis(cyclopropylmethyl)amino)-2-(hydroxymethyl)tetrahydro-2H-pyran-3,4-diol] | Kd [1]: > 30 µM
< 10 µM |  | OC[C@H]1OC[C@H](Sc2cccc(C(F)(F)F)n2)[C@@H](O)[C@H]1O [A161, (2R,3R,4S,5S)-2-(hydroxymethyl)-5-((6-(trifluoromethyl)pyridin-2-yl)thio)tetrahydro-2H-pyran-3,4-diol] | 
< 10 µM |  | O[C@@H]1[C@H](O)[C@@H](Nc2cncc(C(F)(F)F)n2)CO[C@@H]1CF [A162, (2S,3R,4R,5S)-2-(fluoromethyl)-5-((6-(trifluoromethyl)pyrazin-2-yl)amino)tetrahydro-2H-pyran-3,4-diol] | 
 |  | CC(C)N[C@H]1CO[C@H](CO)[C@H](O)[C@@H]1O [A163, (2R,3R,4R,5S)-2-(hydroxymethyl)-5-(isopropylamino)tetrahydro-2H-pyran-3,4-diol] | Kd [1]: > 30 µM
< 10 µM |  | COc1cccc(N[C@H]2CO[C@H](CO)[C@H](O)[C@@H]2O)n1 [A164, (2R,3R,4R,5S)-2-(hydroxymethyl)-5-((6-methoxypyridin-2-yl)amino)tetrahydro-2H-pyran-3,4-diol] | 
< 10 µM |  | NCc1ccc(N2CCC(CN3CCN(C[C@H]4OC[C@H](Nc5cncc(C(F)(F)F)n5)[C@@H](O)[C@H]4O)CC3)CC2)cc1 [A165, (2R,3R,4R,5S)-2-((4-((1-(4-(aminomethyl)phenyl)piperidin-4-yl)methyl)piperazin-1-yl)methyl)-5-((6-(trifluoromethyl)pyrazin-2-yl)amino)tetrahydro-2H-pyran-3,4-diol] | 
 |  | OC[C@H]1OC[C@H](NC2CCC2)[C@@H](O)[C@H]1O [A166, (2R,3R,4R,5S)-5-(cyclobutylamino)-2-(hydroxymethyl)tetrahydro-2H-pyran-3,4-diol] | Kd [1]: > 30 µM
 | < 10 µM | O[C@@H]1[C@H](O)[C@@H](Nc2cncc(C(F)(F)F)n2)CO[C@@H]1C(F)F [A179, (2S,3R,4R,5S)-2-(difluoromethyl)-5-((6-(trifluoromethyl)pyrazin-2-yl)amino)tetrahydro-2H-pyran-3,4-diol] | 
 | < 10 µM | Cc1cncc(N[C@H]2CO[C@H](CO)[C@H](O)[C@@H]2O)n1 [A180, (2R,3R,4R,5S)-2-(hydroxymethyl)-5-((6-methylpyrazin-2-yl)amino)tetrahydro-2H-pyran-3,4-diol] | 
 |  | OC[C@H]1OC[C@H](Nc2ncc3c(n2)CCC3)[C@@H](O)[C@H]1O [A182, (2R,3R,4R,5S)-5-((6,7-dihydro-5H-cyclopenta[d]pyrimidin-2-yl)amino)-2-(hydroxymethyl)tetrahydro-2H-pyran-3,4-diol] | Kd [2]: > 30 µM
 |  | OC[C@H]1OC[C@H](Nc2ncc3cn[nH]c3n2)[C@@H](O)[C@H]1O [A183, (2R,3R,4R,5S)-5-((1H-pyrazolo[3,4-d]pyrimidin-6-yl)amino)-2-(hydroxymethyl)tetrahydro-2H-pyran-3,4-diol] | Kd [2]: > 30 µM
 |  | OC[C@H]1OC[C@H](Nc2ncc3cc[nH]c3n2)[C@@H](O)[C@H]1O [A184, (2R,3R,4R,5S)-5-((7H-pyrrolo[2,3-d]pyrimidin-2-yl)amino)-2-(hydroxymethyl)tetrahydro-2H-pyran-3,4-diol] | Kd [2]: > 30 µM
 | < 10 µM | OC[C@H]1OC[C@H](Nc2cccc(OC(F)F)n2)[C@@H](O)[C@H]1O [A185, (2R,3R,4R,5S)-5-((6-(difluoromethoxy)pyridin-2-yl)amino)-2-(hydroxymethyl)tetrahydro-2H-pyran-3,4-diol] | 
 | < 10 µM | O=C(O)c1ccc(OC[C@H]2OC[C@H](Nc3cncc(C(F)(F)F)n3)[C@@H](O)[C@H]2O)nn1 [A186, 6-(((2R,3R,4R,5S)-3,4-dihydroxy-5-((6-(trifluoromethyl)pyrazin-2-yl)amino)tetrahydro-2H-pyran-2-yl)methoxy)pyridazine-3-carboxylic acid] | 
 | < 10 µM | O=C(O)c1cnc(OC[C@H]2OC[C@H](Nc3cncc(C(F)(F)F)n3)[C@@H](O)[C@H]2O)cn1 [A187, 5-(((2R,3R,4R,5S)-3,4-dihydroxy-5-((6-(trifluoromethyl)pyrazin-2-yl)amino)tetrahydro-2H-pyran-2-yl)methoxy)pyrazine-2-carboxylic acid] | 
 | < 10 µM | N#Cc1ccc(OC[C@H]2OC[C@H](Nc3cncc(C(F)(F)F)n3)[C@@H](O)[C@H]2O)nn1 [A188, 6-(((2R,3R,4R,5S)-3,4-dihydroxy-5-((6-(trifluoromethyl)pyrazin-2-yl)amino)tetrahydro-2H-pyran-2-yl)methoxy)pyridazine-3-carbonitrile] | 
 |  | CC#Cc1cccc(N[C@H]2CO[C@H](CO)[C@H](O)[C@@H]2O)n1 [A189, (2R,3R,4R,5S)-2-(hydroxymethyl)-5-((6-(prop-1-yn-1-yl)pyridin-2-yl)amino)tetrahydro-2H-pyran-3,4-diol] | Kd [2]: > 30 µM
 | < 10 µM | O[C@@H]1[C@H](O)[C@@H](Oc2cccc(C(F)(F)F)n2)CO[C@@H]1COc1ccc(-c2ccccc2)cc1 [A190, (2R,3R,4S,5S)-2-(([1,1′-biphenyl]-4-yloxy)methyl)-5-((6-(trifluoromethyl)pyridin-2-yl)oxy)tetrahydro-2H-pyran-3,4-diol] | 
 | < 10 µM | NC[C@H]1OC[C@H](Oc2cccc(C(F)(F)F)n2)[C@@H](O)[C@H]1O [A192, (2R,3R,4S,5S)-2-(aminomethyl)-5-((6-(trifluoromethyl)pyridin-2-yl)oxy)tetrahydro-2H-pyran-3,4-diol] | 
 | < 10 µM | CC(C)(C)OC(=O)N1CCC(n2cc([C@H]3OC[C@H](Nc4cncc(C(F)(F)F)n4)[C@@H](O)[C@H]3O)nn2)CC1 [A193, tert-butyl 4-(4-((2R,3R,4R,5S)-3,4-dihydroxy-5-((6-(trifluoromethyl)pyrazin-2-yl)amino)tetrahydro-2H-pyran-2-yl)-1H-1,2,3-triazol-1-yl)piperidine-1-carboxylate] | 

— patent publication US20260083851A1 (AVILAR THERAPEUTICS, INC., priority 2022, published 2026)
